Patent US20050118204A1, “Methods for controlling membrane permeability of a membrane permeable substance and screening methods for a membrane permeable substance” (priority 2003, published 2005)
Blank lines part the entries; values can stand above or below the compound they belong to.

Columns and labels:
erythrocytes = test: Influence of osmotic pressure on membrane permeation of Tat Peptide (48-60) into erythrocyte (Test Example 4); format: cell-based, sheep; settings: 10 μM, 37° C, 10 minutes; hypotonic versus isotonic phosphate buffer solution
Description: 5 mL of preserved sheep blood (available from Japan Biomaterial Center Co., Ltd.) was placed in a tube, and after subjecting to centrifugal separation (4° C., 3,000 g, 3 min), the supernatant fluid was removed. 5 mL of physiological saline was added thereto, followed by lightly stirring, and then subjected to centrifugal separation (4° C., 3,000 g, 3 min). The same operation was repeated to obtain an erythrocyte pellet. 400 μL of an isotonic phosphate buffer solution was added to 400 μL of the erythrocyte pellet, and after stirring, the mixture was subjected to centrifugal separation (4° C., 3,000 g, 3 min), followed by removing the supernatant fluid. The same operation was repeated to obtain an erythrocyte pellet for evaluation. […] The solution in the Coulter Counter® is replaced by a hypotonic phosphate buffer solution (70% hypotonicity), and the diameter of the erythrocytes floating in the hypotonic phosphate buffer solution was measured in the same manner as in the case of the isotonic phosphate buffer solution. The diameter of the erythrocytes in a hypertonic phosphate buffer solution (130% hypertonicity) was also measured in the same manner. […]
An erythrocyte pellet for evaluation was prepared in the same manner as in Test Example 1. […] The supernatant fluid was measured for fluorescence intensity with a microplate reader or a spectrophotofluorometer. […]

[1] = Phase change of cubic phase of lecithin/sodium cholate system on adding sucrose; format: physicochemical; settings: cubic phase of 22.5% water, 50.4% phosphatidylcholine, 27.1% sodium cholate by weight at 25° C
Excerpt: The suppressing effect of incorporation of an Arg oligomer was investigated upon adding sucrose as a permeation suppressing substance, which was disclosed as a substance negatively changing the membrane curvature in Biochimica et Biophysica Acta (BBA)—Biomembranes, vol. 1285, Issue 1, p. 109-122 (1996). The inventors confirmed that a cubic phase of lecithin/sodium cholate system was constituted by utilizing lecithin (phosphatidylcholine) as a major constitutional component of the phospholipid constituting a cell membrane, and the cubic phase was changed to a hexagonal phase by adding sucrose thereto (as described in Biochim. Biophys. Acta., vol. 125, p. 563-580 (1966)). The phase change was determined by a change of the shape observed by a polarization microscope, the presence or absence of polarization with a polarizing film (a lamellar phase and a hexagonal phase were viewed brightly owing to the polarization thereof, but a cubic phase is viewed darkly), or a difference in spectrum patterns obtained by small angle X-ray scattering. The cubic phase was formed by mixing 22.5% by weight of water, 50.4% by weight of phosphatidylcholine and 27.1% by weight of sodium cholate at 25° C. When sucrose was added to the cubic phase in a proportion of 3.5% by weight or more, the cubic phase was changed to a lamellar phase. […]

dermal fibroblast [2] = test: Suppressing effect of incorporation of Arg oligomer using substance negatively changing membrane curvature (Test Example 6); format: cell-based; settings: Arg oligomer 1 μM, 10 minutes
Description: The suppressing effect of incorporation of an Arg oligomer was evaluated by using skin-related cells (dermal fibroblast). Dermal fibroblast (Fibrocell, produced by Kurabo Industries, Ltd.) was seeded on a 6-well plate in an amount of 3×10^4 (cell/well) and cultivated with D-MEM Culture Medium (Dulbecco's modified Eagle medium, containing 10% serum, penicillin: 50 U/mL, streptomycin: 50 μg/mL) for 2 days. After cultivating for 2 days, the culture medium was removed from the wells of the 6-well plate, and D-MEM Culture Medium adjusted to contain sucrose in a concentration of 2.5, 5 or 10 mM was added. After incubating for 5 minutes (37° C., 5% CO2), an Arg oligomer was added to the respective plates to a concentration of 1 μM and incubated for 10 minutes. After lapsing 10 minutes, the culture medium was removed by suction, and the contents of the wells were rinsed twice with an isotonic phosphate buffer solution. 500 μL of 1% Triton X-100 was added to the respective wells, followed by shaking at room temperature under light shielding for 1 hour, to lyse the cells. After thoroughly stirring by pipetting, the contents of the respective wells were transferred by 200 μL to a 96-well black cell, and fluorescence of 535 nm was measured under excitation with a spectrophotofluorometer (microplate reader, Wallac 1420 ARVOsx) at 485 nm. The addition of sucrose decreased the fluorescence intensity depending upon the concentration of sucrose by 8% with a sucrose concentration of 2.5 mM, 19% with 5 mM and 37% with 10 mM, in comparison to the case where no sucrose was added. According to the aforementioned experimentation, sucrose is a compound changing the membrane curvature to concave, and it is considered that the change of the membrane suppresses the membrane permeability of the Arg oligomer.

dermal fibroblast [3] = test: Enhancing effect of incorporation of Arg oligomer using substance positively changing membrane curvature (Test Example 5); format: cell-based; settings: Arg oligomer 1 μM, 10 minutes
Description: The enhancing effect of incorporation of an Arg oligomer was evaluated by using skin-related cells (dermal fibroblast). Dermal fibroblast (Fibrocell, produced by Kurabo Industries, Ltd.) was seeded on a 6-well plate in an amount of 3×10^4 (cell/well) and cultivated with D-MEM Culture Medium (Dulbecco's modified Eagle medium, containing 10% serum, penicillin: 50 U/mL, streptomycin: 50 μg/mL) for 2 days. After cultivating for 2 days, the culture medium was removed from the wells of the 6-well plate, and D-MEM Culture Medium adjusted to contain 1,3-butanediol in a concentration of 2.5, 5 or 10 mM was added. After incubating for 5 minutes (37° C., 5% CO2), an Arg oligomer was added to the respective plates to a concentration of 1 μM and incubated for 10 minutes. After 10 minutes, the culture medium was removed by suction, and the wells were rinsed twice with an isotonic phosphate buffer solution. 500 μL of 1% Triton X-100 was added to the respective wells, followed by shaking at room temperature under light shielding for 1 hour, to lyse the cells. After thoroughly stirring by pipetting, the contents of the respective cells were transferred by 200 μL to a 96-well black cell, and fluorescence of 535 nm was measured under excitation with a spectrophotofluorometer (microplate reader, Wallac 1420 ARVOsx) at 485 nm.

Compound: rhodamine-GABA-GRKKRRQRRRPPQC-NH2.8CF3COOH [Tat Peptide]
amount of the Tat Peptide which penetrated into the erythrocytes on lowering the osmotic pressure, by fluorescence intensity (erythrocytes): increased

proportion added at which the cubic phase was changed to a lamellar phase [1]: ≥ 3.5 % by weight
Compound: OC[C@H]1O[C@@](CO)(O[C@H]2O[C@H](CO)[C@@H](O)[C@H](O)[C@H]2O)[C@@H](O)[C@@H]1O [sucrose]
decrease of fluorescence intensity (Arg oligomer incorporation) versus no sucrose (dermal fibroblast [2]; sucrose 2.5 mM): 8%
decrease of fluorescence intensity (Arg oligomer incorporation) versus no sucrose (dermal fibroblast [2]; sucrose 5 mM): 19%
decrease of fluorescence intensity (Arg oligomer incorporation) versus no sucrose (dermal fibroblast [2]; sucrose 10 mM): 37%

Compound: N#C[S-].[Na+] [sodium thiocyanate]
increase of fluorescence intensity (Arg oligomer incorporation) versus no addition (dermal fibroblast [3]; 2.5 mM of added substance): about 10%
increase of fluorescence intensity (Arg oligomer incorporation) versus no addition (dermal fibroblast [3]; 10 mM of added substance): about 15%

Compound: CC(O)CCO (centres unmarked) [1,3-butanediol]
increase of fluorescence intensity (Arg oligomer incorporation) versus no addition (dermal fibroblast [3]; 2.5 mM of added substance): about 15%
